Literature values in patent publication US20230354819A1 (priority 2020, published 2023).
Bridge positions count the residues as written; N and C are the ends. Square brackets hold non-standard residues; d marks the D form. Peptide text beside a SMILES is read from it. * marks the point of attachment. ξ: configuration not given here. Pentadecanoyl(3ξ-OH,15-Gua) = N=C(N)NCCCCCCCCCCCCC(O)CC(=O)*; d(aThr) = C[C@@H](O)[C@@H](N)C(=O)O; Thr(3ξ) = CC(O)[C@H](N)C(=O)O; ξY = NC(Cc1ccc(O)cc1)C(=O)O

Assays:
[1] = test system: plant pathogenic fungi such as Fusarium oxysporum, Aspergillus niger, Aspergillus oryzae, and Penicillium thomii; settings: J. Antibiotics 49(2), 129-135, 1996; 50(3), 220-228, 1997
[2] = test system: Fusarium oxysporum; settings: WO 2006/016558
[3] = test system: Staphylococcus aureus; parameters: unit not given here; settings: variety of clinically relevant fungi and gram-positive bacteria such a Staphylococcus aureus; ChemMedChem 7, 871-882, 2012

Row | SMILES | inhibition of plant pathogenic fungi [1] | inhibition of growth of Fusarium oxysporum [2] | MIC value range [3]
1 | CC1OC(=O)[C@@H](C)NC(=O)[C@@H](CC(N)=O)NC(=O)[C@@H]([C@H](C)O)NC(=O)C(Cc2ccc(O)cc2)NC(=O)[C@@H](C(C)C)NC(=O)[C@H]1NC(=O)CC(O)CCCCCCCCCCCCN=C(N)N (stereo partly shown) [fusaricidin C] ({Pentadecanoyl(3ξ-OH,15-Gua)}-[Thr(3ξ)][dV][ξY][dT][dN][dA]; ester 1-C) | inhibit plant pathogenic fungi |  | 
2 | CC(C)[C@@H]1NC(=O)[C@@H](C(C)C)NC(=O)[C@@H](NC(=O)CC(O)CCCCCCCCCCCCN=C(N)N)[C@@H](C)OC(=O)[C@@H](C)NC(=O)[C@@H](CC(N)=O)NC(=O)[C@@H]([C@@H](C)O)NC1=O (stereo partly shown) [fusaricidin A] ({Pentadecanoyl(3ξ-OH,15-Gua)}-T[dV]V[d(aThr)][dN][dA]; ester 1-C) | inhibit plant pathogenic fungi | inhibit growth | 0.78-3.12
3 | CC(C)[C@@H]1NC(=O)[C@@H](C(C)C)NC(=O)[C@@H](NC(=O)CC(O)CCCCCCCCCCCCN=C(N)N)C(C)OC(=O)[C@@H](C)NC(=O)[C@@H](CCC(N)=O)NC(=O)[C@@H]([C@H](C)O)NC1=O (stereo in doubt) [fusaricidin B] | inhibit plant pathogenic fungi | inhibit growth | 
4 | CC1OC(=O)[C@@H](C)NC(=O)[C@@H](CCC(N)=O)NC(=O)[C@@H]([C@H](C)O)NC(=O)C(Cc2ccc(O)cc2)NC(=O)[C@@H](C(C)C)NC(=O)[C@H]1NC(=O)CC(O)CCCCCCCCCCCCN=C(N)N (stereo partly shown) [fusaricidin D] ({Pentadecanoyl(3ξ-OH,15-Gua)}-[Thr(3ξ)][dV][ξY][dT][dQ][dA]; ester 1-C) | inhibit plant pathogenic fungi |  | 
